Results on one compound are retold here after patent publication US10968214B2, “KRas G12C inhibitors” (Eli Lilly and Company, priority 2018, dated 2021).

The inhibition is the relative decrease from the control value, in per cent.

The structures appear in SMILES notation. Read-outs that look alike come from different tables or passages of the source.

For test [1], the system named is pMEK in H358 xenograft tumors. The experiment in a line: In vivo target inhibition/PD, H358 xenograft, pMEK. The conditions noted are these: for inhibition at 30 mg/kg: 30 mg/kg single dose. Also on record: species or system mouse. The method, then: To evaluate in vivo target inhibition and anti-tumor efficacy of a compound, Human lung cancer cells, H358 or H2122 are implanted into nude mice xenograft tumor models. Either H358 or H2122 cells (10×10^6 in a 1:1 Matrigel® mix, 0.2 mL total volume) are implanted by subcutaneous injection in hind leg of nude female mice (Harlan Laboratories). A total of 5 mice each group are used for efficacy study, and a total of 3-4 mice each group are used for target engagement and PD study. Treatment is initiated with oral administration (gavage) of a test compound or vehicle (20% Captisol®, 25 mM phosphate, pH 2.0 in 0.2 mL volume when the tumor size reaches approximately […]. Tumor growth and body weight are monitored over time to evaluate efficacy and signs of toxicity. Bidimensional measurements of tumors are performed twice a week and tumor volumes are calculated based on mid-axis length and mid-axis width. Tumor volume data are transformed to a log scale to equalize variance across time and treatment groups. The log volume data are analyzed with a two-way repeated measures analysis of variance by time and treatment using the mixed procedures in SAS software (version 8.2). The correlation model for the repeated measures is spatial power. Treated groups are compared to the control group at each time point. The mixed procedure is also used separately for each treatment group to calculate adjusted means and standard errors at each time point. Both analyses account for the autocorrelation within each animal. The adjusted means and standard errors are plotted for each treatment group versus time.
For in vivo target inhibition and PD analysis, tumors are ground by mortar and pestle on dry ice and tumor fragments are added to 800 μL of lysis buffer containing 1% Triton X100, 25 mM Tris pH 7.5, 150 mM NaCl, 1 mM EDTA, and 1 mM EGTA with Halt protease and phosphatase inhibitor cocktail (Thermo Scientific, cat. no. 1861281) in lysing matrix D tubes (MP Biomedical®, cat. no. 6913-500) with one additional large bead (MP Biomedical® ¼″ ceramic sphere bead cat. no. 6540-412) per tube. Tumor fragments are homogenized in a Thermo Bio101® fast prep (FP120) at setting 4 for […] while cold for a total of 2 times. Lysates are spun at 14,000 rpm for 10 min at 4° C. to clarify. Protein estimation is done on the lysate supernatant using a BioRad Dc® protein assay and lysates are diluted in complete lysis/binding buffer from the Ras GTPase Chemi ELISA Kit® (Active Motif, cat. no. 52097). The active KRas ELISA was performed as follows: Glutathione-coated ELISA wells were incubated with diluted RAF1-GST in complete lysis/binding buffer for 1 hr at 4° C. with gentle agitation. Wells are washed 3 times with wash buffer and 100 μg of lysates are added to each well and incubated at RT for 1 hr with mild agitation. The wells are washed an additional 3 times, then primary antibody, diluted in antibody binding buffer, is added to each well. The plates are incubated for 1 hr. The wells are washed 3 more times before adding HRP-conjugated secondary antibody, diluted in antibody binding buffer, to each well. The plates are incubated at RT for 1 hr. ELISA wells are washed 4 times, chemiluminescent reagents is added and then luminescence is read. For pERK Meso Scale Discovery ELISA, 25 μg of protein containing 0.1% SDS is used; for pMEK Meso Scale Discovery ELISA, 50 μg of protein without SDS is used. Meso Scale Discovery Whole Cell Lysate Kits for pERK and pMEK are provided by Meso Scale Discovery.
The tumor samples are collected 4 hr post a single dose. The tumor lysates are prepared and the inhibition of pERK, pMEK, and active KRas is measured as described above.
After a single dose, the tumor samples are harvested at 2, 4, 8, 12 and 24 hr post doing. The tumor lysates are prepared and the inhibition of pERK, pMEK, and active KRas is measured as described above.

The test system of test [2] is phosphorylation of p-ERK1/2 in H358 cells. The experiment in a line: H358 Cellular Phospho-ERK AlphaLISA. Format: cell-based, Human. The conditions noted are these: Homo sapiens, NCI-H358, 2 h. The method, then: This assay is used to measure the ability of test compounds to inhibit the phosphorylation of p-ERK1/2, a downstream effector of KRas in Human lung cancer cells H358 (ATCC CRL-5807). Briefly, the AlphaLISA® SureFire® Ultra™ p-ERK 1/2 (Thr202/Tyr204) assay is a sandwich immunoassay for quantitative detection of phospho-ERK 1/2 (phosphorylated on Thr202/Tyr204 in ERK1, or Thr185/Tyr187 in ERK2) in cellular lysates using Alpha Technology (Perkin Elmer Cat #ALSU-PERK-A50K).
H358 cells are plated at 40K cells per well in 100 μL media (RPMI 1640, GIBCO Cat #22400-071) containing 10% FBS (GIBCO Cat #: 10082-147) in a 96 well plate (Costar #3596) and are incubated overnight in humid trays at 37° C., 5% CO2. The next morning, 10 μL of serially-diluted (3-fold) test compounds (50 μM top concentration) and 10 uL of controls (Maximum signal wells: 5% DMSO and Minimum signal wells: 2 μM of N-(3-{3-cyclopropyl-5-[(2-fluoro-4-iodophenyl)amino]-6,8-dimethyl-2,4,7-trioxo-3,4,6,7-tetrahydropyrido[4,3-D]pyrimidin-1(2H)-yl}phenyl)acetamide (trametinib, as a positive control) are added to the cell plate and incubated for 2 hr in humid trays at 37° C./5% CO2. Lysis Buffer is prepared at RT containing a protease and phosphatase inhibitor cocktail. Culture medium is removed by inverting and shaking the cell plate in the sink and then blotting onto a paper towel. Lysis buffer is added to the cell plate (50 μL per well) and the plate is incubated at RT for 10 min on a shaker. For p-ERK detection, acceptor beads are diluted into a suspension mixture with buffer. Using a Starlett liquid handler, 5 μL of acceptor beads and 2 μL of cell lysate are transferred as a single-step in-tip dilution to a 384 well assay plate. The assay plate is sealed with foil and is incubated at RT for 2 hrs. Donor beads are diluted into a suspension mixture with buffer. Using the Starlet, 5 μL of donor beads are added to the assay plate that is then sealed, wrapped with foil. The plate is incubated at RT for 2 hrs in the dark. The assay plate is then read on an EnVision™ Plate Reader (Perkin Elmer) using a luminescence program.
The signal is converted to percent inhibition using the following equation: % Inhibition=100−[(Test Compound Signal−Median Minimum Signal)/(Median Maximum Signal−Median Min Signal)×100]. The Maximum signal is a control well without inhibitor.
On the technique in general: Bead proximity is the source of the signal in Alpha formats.

For `C=CC(=O)N1CCN(c2ncnc3c(F)c(-c4ccc(F)c5sc(N)nc45)c(Cl)cc23)CC1` [Example 1, 1-{4-[7-(2-Amino-7-fluoro-1,3-benzothiazol-4-yl)-6-chloro-8-fluoroquinazolin-4-yl]piperazin-1-yl}prop-2-en-1-one], in test [1] (H358 xenograft, time course, 10 mg/kg single dose, 24 hr, 10 mg/kg), the “% Inhibition pMEK” value is 30.4%. The “dose to achieve 50% target inhibition (TED50), pMEK” value in test [1] (H358 xenograft, single dose, 4 hr) is on record as 11.19 mg/kg. Further, the inhibition at 10 mg/kg in test [1] (Mus musculus, NCI-H358, 2 h, H358 xenograft, time course, 10 mg/kg single dose, 2 hr, read-out: % Inhibition pMEK) was 49.2%; in test [1] (Mus musculus, NCI-H358, 4 h, H358 xenograft, time course, 10 mg/kg single dose, 4 hr, read-out: % Inhibition pMEK) it was 59.5%; in test [1] (Mus musculus, NCI-H358, 4 h, H358 xenograft, 10 mg/kg single dose, 4 hr post dose, read-out: % Inhibition pMEK) it was 43.1%; in test [1] (Mus musculus, NCI-H358, 8 h, H358 xenograft, time course, 10 mg/kg single dose, 8 hr, read-out: % Inhibition pMEK), 62.4%; in test [1] (Mus musculus, NCI-H358, 12 h, H358 xenograft, time course, 10 mg/kg single dose, 12 hr, read-out: % Inhibition pMEK) it was 77.9%; in test [1] (Mus musculus, NCI-H358, 24 h, H358 xenograft, time course, 10 mg/kg single dose, 24 hr, read-out: % Inhibition pMEK), 30%. For the same compound, the inhibition at 10 mg/kg in test [1] (Mus musculus, NCI-H358, H358 xenograft, 10 mg/kg single dose, from 2-12 hr, read-out: pMEK inhibition) lay in the range of 49 to 78%. Besides, the inhibition at 30 mg/kg in test [1] (Mus musculus, NCI-H358, 2 h, H358 xenograft, time course, 2 hr, read-out: % Inhibition pMEK) came to 81.4%; in test [1] (Mus musculus, NCI-H358, 4 h, H358 xenograft, time course, 4 hr, read-out: % Inhibition pMEK), 89.3%; in test [1] (Mus musculus, NCI-H358, 4 h, H358 xenograft, 4 hr post dose, read-out: % Inhibition pMEK), 82.1%; in test [1] (Mus musculus, NCI-H358, 8 h, H358 xenograft, time course, 8 hr, read-out: % Inhibition pMEK) it was 81.8%; in test [1] (Mus musculus, NCI-H358, 12 h, H358 xenograft, time course, 12 hr, read-out: % Inhibition pMEK), 65.8%; in test [1] (Mus musculus, NCI-H358, 24 h, H358 xenograft, time course, 24 hr, read-out: % Inhibition pMEK), 35%. Also, the inhibition at 30 mg/kg in test [1] (Mus musculus, NCI-H358, H358 xenograft, from 2-24 hr, read-out: pMEK inhibition) was in the range of 35 to 89%. The inhibition at 1 mg/kg in test [1] (Mus musculus, NCI-H358, 4 h, H358 xenograft, 1 mg/kg single dose, 4 hr post dose) is -6.2%. In test [1] (Mus musculus, NCI-H358, 4 h, H358 xenograft, 3 mg/kg single dose, 4 hr post dose), the inhibition at 3 mg/kg turned out to be 11.1%. Besides, the inhibition at 100 mg/kg in test [1] (Mus musculus, NCI-H358, 4 h, H358 xenograft, 100 mg/kg single dose, 4 hr post dose) worked out at 85.8%. Moreover, the EC50 in test [1] (Mus musculus, NCI-H358, H358 xenograft, plasma exposure by mass spectrum, read-out: plasma concentration to achieve 50% target inhibition (TEC50), pMEK) was determined as 515 nM. In addition, the IC50 in test [2] (read-out: pERK) stood at 5.66 nM; in test [2] (read-out: relative IC50), 5.7 nM.
